Assay results taken from ChEMBL document CHEMBL1201862, “PubChem BioAssay data set” (2004).
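Briefly, cells in 96-well plates were exposed to five compound concentrations for 48 h, and endpoints were estimated by linear interpolation. At the GI50, growth is halved.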 Activity calls are given as the source filed them. Cut-off read from the data, not from the text of the source: active = GI50 up to about 1.1 µM and inactive = higher.

How the values were obtained:
Assay in all cases: inhibition of tumour cell growth, NCI panel, 48 h
[1] = system: OVCAR-4
[2] = system: EKVX
[3] = system: LXFL 529
[4] = system: UO-31
[5] = system: OVCAR-5
[6] = system: A498
[7] = system: RPMI-8226
[8] = system: HOP-62
[9] = system: HCC 2998
[10] = system: SK-MEL-2
[11] = system: IGROV-1
[12] = system: SW-620
[13] = system: HCT-116
[14] = system: SR
[15] = system: RXF 631
[16] = system: SF-539
[17] = system: RXF 393
[18] = system: UACC-257
[19] = system: M14
[20] = system: K562
[21] = system: NCI-H226
[22] = system: 786-0
[23] = system: U-251
[24] = system: DLD-1
[25] = system: KM12
[26] = system: COLO 205
[27] = system: DMS-273
[28] = system: LOX IMVI
[29] = system: SK-OV-3
[30] = system: NCI-H23
[31] = system: KM-20L2
[32] = system: OVCAR-8
[33] = system: CCRF-CEM
[34] = system: CAKI-1
[35] = system: MOLT-4
[36] = system: SK-MEL-5
[37] = system: TK-10
[38] = system: NCI-H460
[39] = system: HT-29
[40] = system: UACC-62
[41] = system: ACHN
[42] = system: HOP-18
[43] = system: A549
[44] = system: HOP-92
[45] = system: HL-60
[46] = system: HCT-15
[47] = system: SNB-75
[48] = system: DMS-114
[49] = system: SNB-19
[50] = system: SN12C
[51] = system: OVCAR-3
[52] = system: Malme-3M
[53] = system: SF-268
[54] = system: SF-295
[55] = system: SNB-78
[56] = system: SK-MEL-28
[57] = system: XF498
[58] = system: NCI-H522

Cc1cnoc1/N=C1\C=C(Nc2oncc2C)C(=O)c2ccccc21
GI50 [1]: > 100 µM (inactive)
GI50 [2]: > 100 µM (inactive)
GI50 [3]: 79.1 µM (inactive)
GI50 [4]: 62.1 µM (inactive)
GI50 [5]: > 100 µM (inactive)
GI50 [6]: > 100 µM (inactive)
GI50 [7]: > 100 µM (inactive)
GI50 [8]: > 100 µM (inactive)
GI50 [9]: > 100 µM (inactive)
GI50 [10]: > 100 µM (inactive)
GI50 [11]: > 100 µM (inactive)
GI50 [12]: > 100 µM (inactive)
GI50 [13]: > 100 µM (inactive)
GI50 [14]: > 100 µM (inactive)
GI50 [15]: > 100 µM (inactive)
GI50 [16]: > 100 µM (inactive)
GI50 [17]: > 100 µM (inactive)
GI50 [18]: 65.6 µM (inactive)
GI50 [19]: > 100 µM (inactive)
GI50 [20]: 25.5 µM (inactive)
GI50 [21]: > 100 µM (inactive)
GI50 [22]: > 100 µM (inactive)
GI50 [23]: > 100 µM (inactive)
GI50 [24]: > 100 µM (inactive)
GI50 [25]: > 100 µM (inactive)
GI50 [26]: > 100 µM (inactive)
GI50 [27]: > 100 µM (inactive)
GI50 [28]: 23.3 µM (inactive)
GI50 [29]: > 100 µM (inactive)
GI50 [30]: 60.5 µM (inactive)
GI50 [31]: > 100 µM (inactive)
GI50 [32]: 30.8 µM (inactive)
GI50 [33]: > 100 µM (inactive)
GI50 [34]: > 100 µM (inactive)
GI50 [35]: > 100 µM (inactive)
GI50 [36]: 33.3 µM (inactive)
GI50 [37]: > 100 µM (inactive)
GI50 [38]: > 100 µM (inactive)
GI50 [39]: > 100 µM (inactive)
GI50 [40]: 48.3 µM (inactive)
GI50 [41]: > 100 µM (inactive)
GI50 [42]: > 100 µM (inactive)
GI50 [43]: > 100 µM (inactive)
GI50 [44]: > 100 µM (inactive)
GI50 [45]: > 100 µM (inactive)
GI50 [46]: 73.1 µM
GI50 [47]: > 100 µM (inactive)
GI50 [48]: 46.8 µM (inactive)
GI50 [49]: > 100 µM (inactive)
GI50 [50]: > 100 µM (inactive)
GI50 [51]: 9.86 µM (inactive)
GI50 [52]: > 100 µM (inactive)
GI50 [53]: > 100 µM (inactive)
GI50 [54]: > 100 µM (inactive)
GI50 [55]: > 100 µM (inactive)
GI50 [56]: > 100 µM (inactive)
GI50 [57]: > 100 µM (inactive)

CC(C)(C)c1cc(-c2c3nc(c(-c4cc(C(C)(C)C)cc(C(C)(C)C)c4)c4ccc([nH]4)c(-c4cc(C(C)(C)C)cc(C(C)(C)C)c4)c4nc(c(-c5cc(C(C)(C)C)cc(C(C)(C)C)c5)c5ccc2[nH]5)C=C4)C=C3)cc(C(C)(C)C)c1
GI50 [1]: > 100 µM (inactive)
GI50 [2]: > 100 µM (inactive)
GI50 [3]: > 100 µM (inactive)
GI50 [4]: > 100 µM (inactive)
GI50 [5]: > 100 µM (inactive)
GI50 [6]: > 100 µM (inactive)
GI50 [7]: > 100 µM (inactive)
GI50 [8]: > 100 µM (inactive)
GI50 [9]: > 100 µM (inactive)
GI50 [10]: > 100 µM (inactive)
GI50 [11]: > 100 µM (inactive)
GI50 [12]: > 100 µM (inactive)
GI50 [13]: > 100 µM (inactive)
GI50 [14]: > 100 µM (inactive)
GI50 [15]: > 100 µM (inactive)
GI50 [16]: > 100 µM (inactive)
GI50 [17]: > 100 µM (inactive)
GI50 [18]: > 100 µM (inactive)
GI50 [19]: > 100 µM (inactive)
GI50 [20]: > 100 µM (inactive)
GI50 [21]: > 100 µM (inactive)
GI50 [22]: > 100 µM (inactive)
GI50 [58]: > 100 µM (inactive)
GI50 [23]: > 100 µM (inactive)
GI50 [24]: > 100 µM (inactive)
GI50 [25]: > 100 µM (inactive)
GI50 [26]: > 100 µM (inactive)
GI50 [27]: > 100 µM (inactive)
GI50 [28]: > 100 µM (inactive)
GI50 [29]: > 100 µM (inactive)
GI50 [30]: > 100 µM (inactive)
GI50 [31]: > 100 µM (inactive)
GI50 [32]: > 100 µM (inactive)
GI50 [33]: > 100 µM (inactive)
GI50 [34]: > 100 µM (inactive)
GI50 [35]: > 100 µM (inactive)
GI50 [36]: > 100 µM (inactive)
GI50 [37]: > 100 µM (inactive)
GI50 [38]: > 100 µM (inactive)
GI50 [39]: > 100 µM (inactive)
GI50 [40]: > 100 µM (inactive)
GI50 [41]: > 100 µM (inactive)
GI50 [42]: > 100 µM (inactive)
GI50 [43]: > 100 µM (inactive)
GI50 [44]: > 100 µM (inactive)
GI50 [45]: > 100 µM (inactive)
GI50 [46]: > 100 µM
GI50 [47]: > 100 µM (inactive)
GI50 [48]: > 100 µM (inactive)
GI50 [49]: > 100 µM (inactive)
GI50 [50]: > 100 µM (inactive)
GI50 [51]: > 100 µM (inactive)
GI50 [52]: > 100 µM (inactive)
GI50 [53]: > 100 µM (inactive)
GI50 [54]: > 100 µM (inactive)
GI50 [55]: > 100 µM (inactive)
GI50 [56]: > 100 µM (inactive)
GI50 [57]: > 100 µM (inactive)
